Reference: patent US9896421B2, “Compound having skin-whitening, anti-oxidizing and PPAR activities and medical use thereof” (Pusan National University Industry-University Cooperation …, priority 2011, dated 2018)
Entries after “also recorded” stand apart in the source; their conditions may differ.

Columns and labels:
[1] = biological target: T1, PPAR gamma-LBD (Homo sapiens, UniProt P37231); test: PPAR gamma assay (fluormone Pan-PPAR green competition, Tb-anti-GST antibody); assay type: binding; settings: sample final concentration 100 M (so in the source); compared with rosiglitazone (positive control); FIG. 8
T1 construct: 10 μl of 4×PPAR gamma-LBD/Tb-anti-GST antibody
T1 sequence (P37231 238-503 limits assumed): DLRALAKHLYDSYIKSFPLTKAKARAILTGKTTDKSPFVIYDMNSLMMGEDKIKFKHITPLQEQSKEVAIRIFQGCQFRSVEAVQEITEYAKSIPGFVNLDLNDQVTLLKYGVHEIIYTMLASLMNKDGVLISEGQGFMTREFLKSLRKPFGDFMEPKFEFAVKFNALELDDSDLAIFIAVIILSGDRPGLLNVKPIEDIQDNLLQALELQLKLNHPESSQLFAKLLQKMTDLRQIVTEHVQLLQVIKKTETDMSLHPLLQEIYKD
Description: 20 μl of a sample and 10 μl of 4× fluormone Pan-PPAR green were spread onto 384 well plates, and 10 μl of 4×PPAR alpha-LBD/Tb-anti-GST antibody or 10 μl of 4×PPAR gamma-LBD/Tb-anti-GST antibody were respectively used in PPAR alpha assay and PPAR gamma assay. In this regard, a sample compound was dissolved in such an amount of DMSO that made a final concentration of the sample to be 100 µM, and the DMSO final concentration was maintained within 1%. The reaction mixture was left at room temperature for 2 to 6 hours, and then, the absorption thereof was measured by using a microplate reader (Hewlett Packard) at an excitation wavelength of 340 nm and at an emission wavelength of 485 nm, and at an exitation wavelength of 340 nm and an emission wavelength of 520 nm to calculate a value of 520 nm/485 nm. In this regard, if a negative control was assumed to have an absorption value of 100, a competitive activation rate was defined as follows: 100 minus an absorption value of each sample. That is, the competitive activation rate indicates a binding ratio of the respective samples with respect to the negative control. […]

[2] = biological target: T2, PPAR alpha-LBD (Homo sapiens, UniProt Q07869); assay type: binding; settings: sample final concentration 100 M (so in the source); compared with fenofibrate (positive control); FIG. 7
T2 construct: 10 μl of 4×PPAR alpha-LBD/Tb-anti-GST antibody
T2 sequence (Q07869 239-466 limits assumed): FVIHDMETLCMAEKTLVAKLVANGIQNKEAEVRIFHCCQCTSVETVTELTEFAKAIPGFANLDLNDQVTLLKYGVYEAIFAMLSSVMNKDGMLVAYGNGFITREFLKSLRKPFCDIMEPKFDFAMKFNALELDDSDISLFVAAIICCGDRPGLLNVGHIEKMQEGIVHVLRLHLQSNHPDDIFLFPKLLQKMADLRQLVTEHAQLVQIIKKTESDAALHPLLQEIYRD

| SMILES | PPARγ activities (competitive activation rate) [1] | PPARα activities (competitive activation rate) [2] |
| --- | --- | --- |
| CC(=O)Oc1ccc(/C=C2\N=C(C)OC2=O)c(O)c1 [Compound 85, (Z)-3-hydroxy-4-((2-methyl-5-oxooxazol-4(5H)-ylidene)methyl)phenyl acetate] | simultaneously activates PPARα and PPARγ | very excellent PPARα activation agent compared to fenofibrate; also recorded: simultaneously activates PPARα and PPARγ |
| CC1=N/C(=C\c2ccccc2O)C(=O)O1 [Compound 93, (Z)-4-(2-hydroxybenzylidene)-2-methyloxazol-5(4H)-one] | simultaneously activates PPARα and PPARγ | very excellent PPARα activation agent compared to fenofibrate; also recorded: simultaneously activates PPARα and PPARγ |
